# Assay results from PubChem BioAssay (NCI).
#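 Cells were grown in 96-well plates and exposed to each compound for 48 hours at five concentrations; endpoints were interpolated linearly between bracketing concentrations, or set to the highest concentration if not reached. At the GI50, growth is halved. At the TGI there is no net growth.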
# What was measured:
# Experiment in all cases: inhibition of tumour cell growth, NCI panel, 48 h
# [1] = test system: CCRF-CEM leukemia
# [2] = test system: SF-295 CNS
# [3] = test system: HOP-62 NSCLC
# [4] = test system: PC-3 prostate
# [5] = test system: MALME-3M melanoma
# [6] = test system: SK-OV-3 ovarian
# [7] = test system: U251 CNS
# [8] = test system: MDA-MB-435
# [9] = test system: T-47D breast
# [10] = test system: UACC-62 melanoma
# [11] = test system: SK-MEL-5 melanoma
# [12] = test system: MDA-MB-231 breast
# [13] = test system: OVCAR-5 ovarian
# [14] = test system: SK-MEL-2 melanoma
# [15] = test system: SN12C renal
# [16] = test system: KM12 colon
# [17] = test system: HOP-92 NSCLC
# [18] = test system: EKVX NSCLC
# [19] = test system: SF-539 CNS
# [20] = test system: HCT-15 colon
# [21] = test system: OVCAR-3 ovarian
# [22] = test system: BT-549 breast
# [23] = test system: MOLT-4 leukemia
# [24] = test system: DU-145 prostate
# [25] = test system: NCI-H460 lung
# [26] = test system: NCI-H522 lung
# [27] = test system: HS 578T breast
# [28] = test system: SK-MEL-28 melanoma
# [29] = test system: NCI-H226 lung
# [30] = test system: SNB-19 CNS
# [31] = test system: UO-31 renal
# [32] = test system: HL-60(TB) leukemia
# [33] = test system: M14 melanoma
# [34] = test system: UACC-257 melanoma
# [35] = test system: SF-268 CNS
# [36] = test system: OVCAR-4 ovarian
# [37] = test system: SNB-75 CNS
# [38] = test system: HCT-116 colon
# [39] = test system: TK-10 renal
# [40] = test system: HT29 colon
# [41] = test system: SW-620 colon
# [42] = test system: LOX IMVI melanoma
# [43] = test system: NCI/ADR-RES ovarian
# [44] = test system: RXF 393 renal
# [45] = test system: HCC-2998 colon
# [46] = test system: SR leukemia
# [47] = test system: A549 NSCLC
# [48] = test system: OVCAR-8 ovarian
# [49] = test system: A498 renal
# [50] = test system: ACHN renal
# [51] = test system: MCF7 breast
# [52] = test system: IGROV1 ovarian
# [53] = test system: NCI-H23 lung
# [54] = test system: 786-0 renal
compound,measurement,setting,value
O=C(NCCNC(=O)c1ccc(F)cc1)Nc1ccc(-n2cc(-c3ccncc3)c(-c3ccc(Cl)c(O)c3)n2)cc1,GI50,[1],336 nM
same,TGI,[1],> 100000 nM
same,GI50,[2],354 nM
same,TGI,[2],1700 nM
same,GI50,[3],697 nM
same,TGI,[3],23100 nM
same,GI50,[4],390 nM
same,TGI,[4],8210 nM
same,GI50,[5],714 nM
same,TGI,[5],2430 nM
same,GI50,[6],746 nM
same,TGI,[6],48500 nM
same,GI50,[7],391 nM
same,TGI,[7],2640 nM
same,GI50,[8],189 nM
same,TGI,[8],577 nM
same,GI50,[9],884 nM
same,TGI,[9],16000 nM
same,GI50,[10],555 nM
same,TGI,[10],2320 nM
same,GI50,[11],280 nM
same,TGI,[11],1120 nM
same,GI50,[12],438 nM
same,TGI,[12],2260 nM
same,GI50,[13],1030 nM
same,TGI,[13],9820 nM
same,GI50,[14],738 nM
same,TGI,[14],4000 nM
same,GI50,[15],509 nM
same,TGI,[15],> 100000 nM
same,GI50,[16],433 nM
same,TGI,[16],2280 nM
same,GI50,[17],465 nM
same,TGI,[17],5230 nM
same,GI50,[18],1360 nM
same,TGI,[18],> 100000 nM
same,GI50,[19],253 nM
same,TGI,[19],957 nM
same,GI50,[20],2120 nM
same,TGI,[20],7000 nM
same,GI50,[21],326 nM
same,TGI,[21],1200 nM
same,GI50,[22],338 nM
same,TGI,[22],2910 nM
same,GI50,[23],356 nM
same,TGI,[23],3540 nM
same,GI50,[24],411 nM
same,TGI,[24],> 100000 nM
same,GI50,[25],329 nM
same,TGI,[25],10500 nM
same,GI50,[26],306 nM
same,TGI,[26],2940 nM
same,GI50,[27],462 nM
same,TGI,[27],> 100000 nM
same,GI50,[28],1380 nM
same,TGI,[28],> 100000 nM
same,GI50,[29],809 nM
same,TGI,[29],6480 nM
same,GI50,[30],730 nM
same,TGI,[30],> 100000 nM
same,GI50,[31],2400 nM
same,TGI,[31],> 100000 nM
same,GI50,[32],273 nM
same,TGI,[32],848 nM
same,GI50,[33],288 nM
same,TGI,[33],1250 nM
same,GI50,[34],1370 nM
same,TGI,[34],5890 nM
same,GI50,[35],427 nM
same,TGI,[35],7330 nM
same,GI50,[36],585 nM
same,TGI,[36],> 100000 nM
same,GI50,[37],3050 nM
same,TGI,[37],> 100000 nM
same,GI50,[38],338 nM
same,TGI,[38],1560 nM
same,GI50,[39],2490 nM
same,GI50,[40],377 nM
same,TGI,[40],1410 nM
same,GI50,[41],430 nM
same,TGI,[41],> 100000 nM
same,GI50,[42],425 nM
same,TGI,[42],2490 nM
same,GI50,[43],> 100000 nM
same,TGI,[43],> 100000 nM
same,GI50,[44],288 nM
same,TGI,[44],3690 nM
same,GI50,[45],597 nM
same,TGI,[45],2850 nM
same,GI50,[46],299 nM
same,TGI,[46],2620 nM
same,GI50,[47],1750 nM
same,TGI,[47],9380 nM
same,GI50,[48],491 nM
same,TGI,[48],> 100000 nM
same,GI50,[49],336 nM
same,TGI,[49],2830 nM
same,GI50,[50],2320 nM
same,TGI,[50],9640 nM
same,GI50,[51],323 nM
same,TGI,[51],> 100000 nM
same,GI50,[52],659 nM
same,TGI,[52],> 100000 nM
same,GI50,[53],587 nM
same,TGI,[53],7770 nM
same,GI50,[54],997 nM
same,TGI,[54],5770 nM
